In patent US11878965B2, “Inhibitors of peptidylarginine deiminases” (Gilead Sciences, Inc., priority 2020, dated 2024) one finds IC50 data, which are given here for 14 compounds.

SMILES strings stand for the structures.

This experiment concerns the target human PAD4 (Homo sapiens (Human), UniProt Q9UM07). Kind of experiment: In Vitro PAD4 BAEE Biochemical Assay. Particulars: geometric mean of multiple experiments. As to the method:
The PCR product was ligated into linearized pET-SUMO vector (Invitrogen, Carlsbad, CA), which is part of the Champion™ pET SUMO Protein Expression System. After sequence verification for the correct orientation, the pET-SUMO-hPAD4 expression plasmid was transformed into BL21(DE3) cells.
E. Coli BL21(DE3) cells were inoculated in LB medium with kanamycin at 37° C. until A600 nm reached about 0.5. Protein expression was induced by addition of 0.5 mM IPTG (final) and continued overnight at 16° C. at 220 rpm.
Cells were harvested by centrifugation at 5000 rpm for 10 minutes at 4° C. The pellet was resuspended in 300 ml lysis buffer (20 mM Tris-HCl, pH 8.0, 1 mM EDTA, 500 mM NaCl, 1 mM (tris(2-carboxyethyl)phosphine) (TCEP), 10% glycerol, and 1% Triton X100 and EDTA free protease inhibitor) and lysed by 3× passage through a microfluidizer (Microfluidics, Newton, MA) at 18,000 psi. The cell lysate was clarified by centrifugation at 30,000 rpm for 60 minutes at 4° C. The supernatant was applied to a 5 ml Ni-HP (GE HealthCare Cat #17524701) column preequilibrated in Ni-A buffer (20 mM Tris-HCl, pH 8.0, 20 mM Imidazole, 1 mM TCEP, 10% glycerol, and 400 mM NaCl). Bound protein was eluted with a 0-100% linear gradient of 100 mL Ni-B buffer (Ni A buffer+0.5 M Imidazole).
The His-Sumo tag was cleaved using sumo protease (Thermo Fisher Cat #: 12588018) while dialyzing in buffer (20 mM Tris-HCl, pH 8.0, 1 mM EDTA, 500 mM NaCl, 1 mM TCEP, 10% glycerol). The protein was then reloaded onto a Ni-HP column for a reverse purification step and recovered in flow through fraction. The protein with His-Sumo tag removed was then polished using a 16/60 Superdex-200 gel filtration column with gel filtration buffer (20 mM Tris pH 8.0, NaCl 400 mM and 1 mM TCEP). The fractions containing the protein were pulled and frozen at −80° C.
In Vitro PAD4 BAEE Biochemical Assay
The enzymatic activity of human PAD4 was monitored in a biochemical assay in the presence or absence of compounds using the small peptidyl arginine mimic BAEE (Nα-Benzoyl-L-arginine ethyl ester hydrochloride) as substrate. PAD4 activity led to deimination of BAEE and release of ammonia. Levels of ammonia were monitored by using an amine coupling reaction and were indicative of PAD4 enzymatic activity.
One hundred nanoliters of test compounds dissolved in DMSO at various concentrations were dispensed into a 384-well black OptiPlate using a Labcyte Echo instrument. Ten microliters of a solution of recombinant PAD4 and calcium chloride diluted in PAD4 assay buffer (50 mM MOPS [3-(N-morpholino) propanesulfonic acid], pH 7.6; 50 mM sodium chloride; 0.05% Tween-20; 2 mM dithiothreitol) was added to the compound-containing plate and was incubated for 30 minutes at 25° C. Ten microliters of a solution of BAEE (Sigma-Aldrich #B4500) diluted in PAD4 assay buffer was then added to start the reaction. Final concentrations were 5 nM PAD4, 2 mM calcium chloride, and 3 mM BAEE. The reaction mixture was incubated at 25° C. for 2 hours and was stopped with the addition of 10 microliters of a solution of 75 mM EDTA (Ethylenediaminetetraacetic acid) in PAD4 assay buffer. Thirty microliters of detection solution (5 mM o-phthalaldehyde, 50 mM MOPS [3-(N-morpholino) propanesulfonic acid], pH 7.6; 50 mM sodium chloride; 0.05% Tween-20; 5 mM dithiothreitol) was then added and the reaction was incubated for 1 hour at 25° C. The level of fluorescent thiol-substituted isoindole resulting from the reaction of ammonia, o-phthalaldehyde, and dithiothreitol was measured on an Envision plate reader (PerkinElmer) with 405 nm excitation and 535 nm emission.

[1] abbreviates: recombinant PAD4 5 nM, 2 mM calcium chloride, 3 mM BAEE substrate.
Setting [2] is: human PAD4, BAEE substrate, 5 nM PAD4, 2 mM calcium chloride, 3 mM BAEE.

Chain of human PAD4 (Q9UM07 2-663): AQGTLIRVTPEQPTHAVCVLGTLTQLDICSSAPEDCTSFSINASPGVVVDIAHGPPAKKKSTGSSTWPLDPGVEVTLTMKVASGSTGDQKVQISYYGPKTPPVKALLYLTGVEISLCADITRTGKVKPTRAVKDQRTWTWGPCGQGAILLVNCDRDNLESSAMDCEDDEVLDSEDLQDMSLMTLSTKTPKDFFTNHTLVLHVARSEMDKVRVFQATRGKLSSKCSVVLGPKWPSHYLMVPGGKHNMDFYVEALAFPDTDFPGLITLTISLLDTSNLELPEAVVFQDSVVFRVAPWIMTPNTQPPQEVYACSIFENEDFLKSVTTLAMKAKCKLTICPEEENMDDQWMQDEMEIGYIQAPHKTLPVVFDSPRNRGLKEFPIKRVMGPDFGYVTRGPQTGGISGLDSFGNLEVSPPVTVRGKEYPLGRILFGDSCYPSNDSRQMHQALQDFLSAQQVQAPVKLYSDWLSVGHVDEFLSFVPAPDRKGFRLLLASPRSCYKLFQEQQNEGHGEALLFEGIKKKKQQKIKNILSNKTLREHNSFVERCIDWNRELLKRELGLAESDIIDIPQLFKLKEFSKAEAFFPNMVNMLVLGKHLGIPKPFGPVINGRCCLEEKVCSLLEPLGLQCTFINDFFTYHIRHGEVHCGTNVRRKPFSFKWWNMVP

Turning to `COc1cc(C(=O)N2C[C@H](N)[C@@H]3CC[C@H]2C3)cc2nc(-c3cc4ccc([C@@H](C)NC(=O)c5ccnc(C(F)F)c5)nc4n3CC3CC3)n(C)c12` [Example 296, N-((R)-1-(2-(5-((1S,4R,5R)-4-amino-2-azabicyclo[3.2.1]octane-2-carbonyl)-7-methoxy-1-methyl-1H-benzo[d]imidazol-2-yl)-1-(cyclopropylmethyl)-1H-pyrrolo[2,3-b]pyridin-6-yl)ethyl)-2-(difluoromethyl)isonicotinamide], the IC50 under setting [1] came to 74.1 nM.

Take `COc1cc(C(=O)N2[C@H]3CC[C@@H]2[C@H](N)C3)cc2nc(-c3cc4ccc([C@@H](C)NC(=O)[C@@H]5CC5(F)F)nc4n3CC3CC3)n(C)c12` [Example 202, (S)-N-((R)-1-(2-(5-((1R,2R,4S)-2-amino-7-azabicyclo[2.2.1]heptane-7-carbonyl)-7-methoxy-1-methyl-1H-benzo[d]imidazol-2-yl)-1-(cyclopropylmethyl)-1H-pyrrolo[2,3-b]pyridin-6-yl)ethyl)-2,2-difluorocyclopropane-1-carboxamide]: the IC50 under setting [2] is 58.7 nM. Turning to `COc1cc(C(=O)N2[C@H]3CC[C@@H]2[C@H](N)C3)cc2nc(-c3cc4ccc([C@@H](C)NC(=O)C5(n6cccn6)CC5)nc4n3CC3CC3)n(C)c12` [Example 173, N-((R)-1-(2-(5-((1R,2R,4S)-2-amino-7-azabicyclo[2.2.1]heptane-7-carbonyl)-7-methoxy-1-methyl-1H-benzo[d]imidazol-2-yl)-1-(cyclopropylmethyl)-1H-pyrrolo[2,3-b]pyridin-6-yl)ethyl)-1-(1H-pyrazol-1-yl)cyclopropane-1-carboxamide], the IC50 under setting [2] turned out to be 96.7 nM. On the same count and under the same terms, next, `COc1cc(C(=O)N2CC3CCCC3(N)C2)cc2nc(-c3cc4ccc(N(C(F)F)S(C)(=O)=O)nc4n3CC3CC3)n(C)c12` (centres unmarked) [Example 73, N-(2-(5-(3a-aminooctahydrocyclopenta[c]pyrrole-2-carbonyl)-7-methoxy-1-methyl-1H-benzo[d]imidazol-2-yl)-1-(cyclopropylmethyl)-1H-pyrrolo[2,3-b]pyridin-6-yl)-N-(difluoromethyl) methanesulfonamide]: 7200 nM.

Regarding `Cc1cc2c(cc1C(=O)N1C[C@H]3CC[C@@H]1[C@@H]3N)nc(-c1cc3ccc(N(C(F)F)S(C)(=O)=O)nc3n1CC1CC1)n2C` [Example 57, N-(2-(5-((1R,4R,7R)-7-amino-2-azabicyclo[2.2.1]heptane-2-carbonyl)-1,6-dimethyl-1H-benzo[d]imidazol-2-yl)-1-(cyclopropylmethyl)-1H-pyrrolo[2,3-b]pyridin-6-yl)-N-(difluoromethyl) methanesulfonamide], the IC50 under setting [2] was 11200 nM. The same measure, in the same setting: next, `COc1cc(C(=O)N2C[C@H](N)CC[C@@H]2C)cc2nc(-c3cc4ccc(-c5cccc6c5NC(=O)C6)nc4n3CC3CC3)n(C)c12` [Example 259, 7-(2-(5-((2S,5R)-5-amino-2-methylpiperidine-1-carbonyl)-7-methoxy-1-methyl-1H-benzo[d]imidazol-2-yl)-1-(cyclopropylmethyl)-1H-pyrrolo[2,3-b]pyridin-6-yl)indolin-2-one]: 1830 nM; `COc1cc(C(=O)N2C[C@H](N)CCN2C)cc2nc(-c3cc4ccc([C@@H](C)NC(=O)c5ccc(F)cc5C)nc4n3CC3CC3)n(C)c12` [Example 195, N-((R)-1-(2-(5-((R)-5-amino-2-methylhexahydropyridazine-1-carbonyl)-7-methoxy-1-methyl-1H-benzo[d]imidazol-2-yl)-1-(cyclopropylmethyl)-1H-pyrrolo[2,3-b]pyridin-6-yl)ethyl)-4-fluoro-2-methylbenzamide]: 102 nM. As to `COc1cc(C(=O)N2[C@H]3CC[C@@H]2[C@H](N)C3)cc2nc(-c3cc4ccc([C@@H](C)NC(=O)N(C)C)nc4n3CC3CC3)n(C)c12` [Example 235, 3-((R)-1-(2-(5-((1R,2R,4S)-2-amino-7-azabicyclo[2.2.1]heptane-7-carbonyl)-7-methoxy-1-methyl-1H-benzo[d]imidazol-2-yl)-1-(cyclopropylmethyl)-1H-pyrrolo[2,3-b]pyridin-6-yl)ethyl)-1,1-dimethylurea], the IC50 under setting [2] came to 40.2 nM. The same measure, in the same setting: next, `COc1cc(C(=O)N2[C@H]3CC[C@@H]2[C@H](N)C3)cc2nc(-c3cc4ccc(N(C(F)F)S(C)(=O)=O)nc4n3CC3CC3)n(C3CC3)c12` [Example 64, N-(2-(5-((1R,2R,4S)-2-amino-7-azabicyclo[2.2.1]heptane-7-carbonyl)-1-cyclopropyl-7-methoxy-1H-benzo[d]imidazol-2-yl)-1-(cyclopropylmethyl)-1H-pyrrolo [2,3-b]pyridin-6-yl)-N-(difluoromethyl) methanesulfonamide]: 128 nM; `COc1cc(C(=O)N2C[C@H](N)CC[C@@H]2C)cc2nc(-c3cc4ccc(-n5c(C)cccc5=O)nc4n3CC3CC3)n(C)c12` [Example 282, 1-(2-(5-((2S,5R)-5-amino-2-methylpiperidine-1-carbonyl)-7-methoxy-1-methyl-1H-benzo[d]imidazol-2-yl)-1-(cyclopropylmethyl)-1H-pyrrolo[2,3-b]pyridin-6-yl)-6-methylpyridin-2(1H)-one]: 146 nM.

For the compound `COc1cc(C(=O)N2C[C@H](N)[C@@H]3CC[C@H]2C3)cc2nc(-c3cc4ccc([C@@H](C)NC(=O)c5ccnc(C(F)(F)F)n5)nc4n3CC3CC3)n(C)c12` [Example 316, N-((R)-1-(2-(5-((1S,4R,5R)-4-amino-2-azabicyclo[3.2.1]octane-2-carbonyl)-7-methoxy-1-methyl-1H-benzo[d]imidazol-2-yl)-1-(cyclopropylmethyl)-1H-pyrrolo[2,3-b]pyridin-6-yl)ethyl)-2-(trifluoromethyl)pyrimidine-4-carboxamide], under setting [1], the IC50 amounted to 570 nM.

Turning to `CCCS(=O)(=O)N[C@H](C)c1ccc2cc(-c3nc4cc(C(=O)N5[C@H]6CC[C@@H]5[C@H](N)C6)cc(OC)c4n3C)n(CC3CC3)c2n1` [Example 240, N—((R)-1-(2-(5-((1R,2R,4S)-2-amino-7-azabicyclo[2.2.1]heptane-7-carbonyl)-7-methoxy-1-methyl-1H-benzo[d]imidazol-2-yl)-1-(cyclopropylmethyl)-1H-pyrrolo[2,3-b]pyridin-6-yl)ethyl)propane-1-sulfonamide], the IC50 under setting [2] amounted to 65.6 nM. Consider `COc1cc(C(=O)N2C[C@H](N)[C@@H]3CC[C@H]2C3)cc2nc(-c3cc4ccc([C@@H](C)NC(=O)C5(F)CCC5)nc4n3CC3CC3)n(C)c12` [Example 327, N-((R)-1-(2-(5-((1S,4R,5R)-4-amino-2-azabicyclo[3.2.1]octane-2-carbonyl)-7-methoxy-1-methyl-1H-benzo[d]imidazol-2-yl)-1-(cyclopropylmethyl)-1H-pyrrolo[2,3-b]pyridin-6-yl)ethyl)-1-fluorocyclobutane-1-carboxamide], for which the IC50 under setting [1] was 88.4 nM. For `COc1cc(C(=O)N2C[C@H](N)CC[C@@H]2C)cc2nc(-c3cc4ccc(-c5c(C)ccc6[nH]ncc56)nc4n3CC3CC3)n(C)c12` [Example 273, ((2S,5R)-5-amino-2-methylpiperidin-1-yl)(2-(1-(cyclopropylmethyl)-6-(5-methyl-1H-indazol-4-yl)-1H-pyrrolo[2,3-b]pyridin-2-yl)-7-methoxy-1-methyl-1H-benzo[d]imidazol-5-yl)methanone], the IC50 under setting [2] came out at 2330 nM.
